How the values were obtained:
[1] = target: T1, CRD from bovine mincle (Bos taurus, UniProt E1BHM0); assay: Competition binding assay: inhibition of radioiodinated Man31-bovine serum albumin binding to immobilized biotin-tagged CRD; conditions: for Ki: inhibition of mannose-conjugated serum albumin binding to bovine mincle CRD, average ± s.d. for three independent experiments; for Reduction in binding affinity compared to brartemicin / Rel. affinity (affinity relative to α,α-trehalose): bovine mincle CRD; for Rel. affinity (affinity relative to α,α-trehalose): α,α-trehalose = 1
T1 construct: A biotin-tagged version of the CRD from bovine mincle was prepared in a bacterial expression system; made in house; host or cells: bacterial expression system
T1 sequence (E1BHM0 78-211 limits assumed): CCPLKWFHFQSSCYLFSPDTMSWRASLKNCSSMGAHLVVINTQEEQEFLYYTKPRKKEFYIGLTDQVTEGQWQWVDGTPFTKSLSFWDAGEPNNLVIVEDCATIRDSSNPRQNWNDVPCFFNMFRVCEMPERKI
Procedure: The collection of compounds was tested in competition binding experiments with immobilized bovine mincle CRD[8] (Fig. 3a).
Fig. 3 a) Data for inhibition of mannose-conjugated serum albumin binding to the CRD from bovine mincle by brartemicin and analogs. K I-values (average ± s.d. for three independent experiments) and affinities relative to α,α-trehalose. b) Top view and c) side view of highest scoring docking pose of brartemicin with bovine mincle. The Ca^2+ is coloured magenta. TEXT PRINTED IN THE PICTURE: (a) brartemicin: Ki (μM): 5.5 ± 0.9; Rel. affinity: 290 | (a) 2: Ki (μM): 5.4 ± 0.3; Rel. affinity: 300 | (a) 3: Ki (μM): 11.3 ± 0.9; Rel. affinity: 140 | (a) 4: Ki (μM): 164 ± 13; Rel. affinity: 9.8 | (a) epi-brartemicin: Ki (μM): 440 ± 70; Rel. affinity: 3.6 | (a) α,α-trehalose: Ki (μM): 1620 ± 70; Rel. affinity: 1
(§1) A biotin-tagged version of the CRD from bovine mincle was prepared in a bacterial expression system as previously described.[8] An equivalent fragment of human mincle was generated using an analogous system.[9] Binding competition assays, based on inhibition of binding of radioiodinated Man31-bovine serum albumin to the biotin-tagged CRDs immobilized on streptavidin-coated plates, were performed as previously described.[8] Results are reported as average ± standard deviation for at least 3 independent experiments, each performed in duplicate.

[2] = target: T2, CRD of human mincle (Homo sapiens, UniProt Q9ULY5); assay: Competition binding assay with immobilized CRD of human mincle; conditions: Fig. S1
T2 construct: made in house; host or cells: bacterial expression system (analogous to the bovine one)
T2 sequence (Q9ULY5 87-206 limits assumed): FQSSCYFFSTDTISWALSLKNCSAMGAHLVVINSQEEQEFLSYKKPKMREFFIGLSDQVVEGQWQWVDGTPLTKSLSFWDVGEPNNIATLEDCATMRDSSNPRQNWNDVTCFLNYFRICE
Procedure: as §1

[3] = Solubility in aqueous media; assay type: physicochemical
[4] = tested on: cancer cells; conditions: cited from earlier work

Ki [1]	Binding to CRD of human mincle [2]	Solubility in aqueous media [3]	Reduction in binding affinity compared to brartemicin [1]	Rel. affinity (affinity relative to α,α-trehalose) [1]	Compound	Block of matrigel-invasion of cancer cells [4]	Anti-invasive activity on cancer cells [4]
5.5 ± 0.9 µM	binds with high affinity	soluble at millimolar concentrations	–	–	Cc1cc(O)cc(O)c1C(=O)OC[C@H]1O[C@H](O[C@H]2O[C@H](COC(=O)c3c(C)cc(O)cc3O)[C@@H](O)[C@H](O)[C@H]2O)[C@H](O)[C@@H](O)[C@@H]1O [brartemicin, 6,6′-Bis-(2,4-dihydroxy-6-methylbenzoate)-α,α-trehalose]	block matrigel-invasion of cancer cells	–
5.4 ± 0.3 µM	–	–	equipotent	300 fold	COc1cccc(C(=O)OC[C@H]2O[C@H](O[C@H]3O[C@H](COC(=O)c4cccc(OC)c4OC)[C@@H](O)[C@H](O)[C@H]3O)[C@H](O)[C@@H](O)[C@@H]2O)c1OC [compound 2]	–	in the same range as brartemicin
11.3 ± 0.9 µM	–	–	two-fold	140 fold	O=C(OC[C@H]1O[C@H](O[C@H]2O[C@H](COC(=O)c3ccccc3)[C@@H](O)[C@H](O)[C@H]2O)[C@H](O)[C@@H](O)[C@@H]1O)c1ccccc1 [compound 3]	–	in the same range as brartemicin
164 ± 13 µM	–	–	roughly 30 fold	9.8 fold	Cc1cc(O)cc(O)c1C(=O)OC[C@H]1O[C@H](O[C@H]2O[C@H](CO)[C@@H](O)[C@H](O)[C@H]2O)[C@H](O)[C@@H](O)[C@@H]1O [compound 4]	–	–
440 ± 70 µM	–	–	~100 fold	3.6 fold	Cc1cc(O)cc(O)c1C(=O)OC[C@H]1O[C@@H](O[C@H]2O[C@H](COC(=O)c3c(C)cc(O)cc3O)[C@@H](O)[C@H](O)[C@H]2O)[C@H](O)[C@@H](O)[C@@H]1O [epi-brartemicin, 6,6′-Bis-(2,4-dihydroxy-6-methylbenzoate)-α,β-trehalose]	–	–
1620 ± 70 µM	–	–	–	1 fold	OC[C@H]1O[C@H](O[C@H]2O[C@H](CO)[C@@H](O)[C@H](O)[C@H]2O)[C@H](O)[C@@H](O)[C@@H]1O [α,α-trehalose, reference compound]	–	–

Source: paper PMC4393326, “The natural product brartemicin is a high affinity ligand for the carbohydrate-recognition domain of the macrophage receptor mincle” (Medchemcomm, 2015)
